{"source": "PubChem BioAssay AID330", "about": "(DTP/NCI, 2004)", "system": "P388 leukemia ip, CD2F1 mice, survival T/C", "assay": "NCI In Vivo Anticancer Drug Screen. Data for tumor model P388 Leukemia (intraperitoneal) in CD2F1 (CDF1) mice", "conditions": "endpoint: median survival time, higher = longer survival", "procedure,_shortened": "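Mice carrying the transplanted tumor received test compound or vehicle. Survival was recorded in each group, and the value is the treated-group measurement divided by that of the vehicle-treated control group.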", "key": {"[1]": {"conditions": "dose: 50.0 mg/kg/injection, schedule: Q01DX009 (ip), vehicle: saline with Tween-80"}, "[2]": {"conditions": "dose: 200.0 mg/kg/injection, schedule: Q01DX009 (ip), vehicle: saline with Tween-80"}}, "note": "Several values for one entry are separate records, joined by “and”; a condition that tells them apart may be missing. Identical values can stand only once. Inconclusive results and toxic doses are left out.", "data": [{"smiles": "COC(=O)c1ccc(C)[n+](C2OC(COC(=O)c3ccccc3)C(OC(=O)c3ccccc3)C2OC(=O)c2ccccc2)c1", "note": "(stereo not drawn)", "values": [{"measurement": "T/C", "setting": "dose: 50.0 mg/kg/injection, schedule: Q01DX005 (ip), vehicle: saline + Tween-80 + alcohol", "value": "100 % of control"}, {"measurement": "T/C", "setting": "dose: 100.0 mg/kg/injection, schedule: Q01DX005 (ip), vehicle: saline + Tween-80 + alcohol", "value": "100 % of control"}, {"measurement": "T/C", "setting": "dose: 200.0 mg/kg/injection, schedule: Q01DX005 (ip), vehicle: saline + Tween-80 + alcohol", "value": "98 % of control"}]}, {"smiles": "[N-]=[N+]=NC1=CC(=O)C(c2ccccc2)=CC1=O", "values": [{"measurement": "T/C", "setting": "dose: 25.0 mg/kg/injection, schedule: Q01DX009 (ip), vehicle: saline with Tween-80", "value": "100 % of control"}, {"measurement": "T/C", "setting": "[1]", "value": "95 % of control"}, {"measurement": "T/C", "setting": "[2]", "value": "103 % of control"}]}, {"smiles": "COP(=O)(CC(=O)NCc1cc(C(C)(C)C)c(O)c(C(C)(C)C)c1)OC", "values": [{"measurement": "T/C", "setting": "[1]", "value": "110 % of control"}, {"measurement": "T/C", "setting": "dose: 100.0 mg/kg/injection, schedule: Q01DX009 (ip), vehicle: saline with Tween-80", "value": "103 % of control"}, {"measurement": "T/C", "setting": "[2]", "value": "100 % of control"}]}, {"smiles": "COc1cccc2c1C(=O)c1c(O)c3c(c(O)c1C2=O)C[C@@](O)(/C(C)=N/NC(=O)c1cccc([N+](=O)[O-])c1)C[C@@H]3OC1CC(N)C(O)C(C)O1", "note": "(stereo partly drawn)", "values": [{"measurement": "T/C", "setting": "dose: 0.5 mg/kg/injection, schedule: Q01DX009 (ip), vehicle: water", "value": "152 % of control"}, {"measurement": "T/C", "setting": "dose: 1.0 mg/kg/injection, schedule: Q01DX009 (ip), vehicle: water", "value": "155 % of control"}, {"measurement": "T/C", "setting": "dose: 1.0 mg/kg/injection, schedule: Q04DX003 (ip), vehicle: saline", "value": "100 % of control and 112 % of control"}, {"measurement": "T/C", "setting": "dose: 1.56 mg/kg/injection, schedule: Q04DX003 (ip), vehicle: water", "value": "106 % of control"}, {"measurement": "T/C", "setting": "dose: 2.0 mg/kg/injection, schedule: Q01DX009 (ip), vehicle: water", "value": "172 % of control and 179 % of control"}, {"measurement": "T/C", "setting": "dose: 2.0 mg/kg/injection, schedule: Q04DX003 (ip), vehicle: saline", "value": "100 % of control and 115 % of control"}, {"measurement": "T/C", "setting": "dose: 3.13 mg/kg/injection, schedule: Q04DX003 (ip), vehicle: water", "value": "112 % of control and 117 % of control"}, {"measurement": "T/C", "setting": "dose: 4.0 mg/kg/injection, schedule: Q01DX009 (ip), vehicle: water", "value": "190 % of control and 200 % of control"}, {"measurement": "T/C", "setting": "dose: 4.0 mg/kg/injection, schedule: Q04DX003 (ip), vehicle: saline", "value": "113 % of control and 122 % of control"}, {"measurement": "T/C", "setting": "dose: 5.0 mg/kg/injection, schedule: Q01DX001 (ip), vehicle: water", "value": "167 % of control"}, {"measurement": "T/C", "setting": "dose: 6.25 mg/kg/injection, schedule: Q04DX003 (ip), vehicle: water", "value": "114 % of control and 122 % of control"}, {"measurement": "T/C", "setting": "dose: 8.0 mg/kg/injection, schedule: Q01DX009 (ip), vehicle: water", "value": "123 % of control and 202 % of control"}, {"measurement": "T/C", "setting": "dose: 8.0 mg/kg/injection, schedule: Q04DX003 (ip), vehicle: saline", "value": "112 % of control and 115 % of control and 95 % of control"}, {"measurement": "T/C", "setting": "dose: 10.0 mg/kg/injection, schedule: Q01DX001 (ip), vehicle: water", "value": "186 % of control"}, {"measurement": "T/C", "setting": "dose: 16.0 mg/kg/injection, schedule: Q04DX003 (ip), vehicle: saline", "value": "110 % of control and 115 % of control and 123 % of control"}, {"measurement": "T/C", "setting": "dose: 25.0 mg/kg/injection, schedule: Q04DX003 (ip), vehicle: water", "value": "168 % of control"}, {"measurement": "T/C", "setting": "dose: 32.0 mg/kg/injection, schedule: Q04DX003 (ip), vehicle: saline", "value": "118 % of control"}, {"measurement": "T/C", "setting": "dose: 64.0 mg/kg/injection, schedule: Q04DX003 (ip), vehicle: saline", "value": "174 % of control"}, {"measurement": "T/C", "setting": "dose: 100.0 mg/kg/injection, schedule: Q04DX003 (ip), vehicle: water", "value": "114 % of control"}, {"measurement": "T/C", "setting": "dose: 512.0 mg/kg/injection, schedule: Q04DX003 (ip), vehicle: saline", "value": "92 % of control"}, {"measurement": "T/C", "setting": "dose: 1024.0 mg/kg/injection, schedule: Q04DX003 (ip), vehicle: saline", "value": "93 % of control"}, {"measurement": "T/C", "setting": "dose: 2048.0 mg/kg/injection, schedule: Q04DX003 (ip), vehicle: saline", "value": "90 % of control"}]}, {"smiles": "Cc1cc(=O)n(-c2ccc(-c3ccc(-n4c(C)c(C(=O)O)c(C)cc4=O)cc3)cc2)c(C)c1C(=O)O", "values": [{"measurement": "T/C", "setting": "dose: 50.0 mg/kg/injection, schedule: Q01DX005 (ip), vehicle: saline with Tween-80", "value": "102 % of control"}, {"measurement": "T/C", "setting": "dose: 100.0 mg/kg/injection, schedule: Q01DX005 (ip), vehicle: saline with Tween-80", "value": "100 % of control"}, {"measurement": "T/C", "setting": "dose: 200.0 mg/kg/injection, schedule: Q01DX005 (ip), vehicle: saline with Tween-80", "value": "106 % of control"}]}, {"smiles": "Cc1ccc(CCN2CSC(=S)N(CCc3ccc(C)cc3)C2)cc1", "values": [{"measurement": "T/C", "setting": "dose: 12.5 mg/kg/injection, schedule: Q01DX009 (ip), vehicle: Klucel (hydroxypropylcellulose) (HPC)", "value": "101 % of control"}, {"measurement": "T/C", "setting": "dose: 25.0 mg/kg/injection, schedule: Q01DX009 (ip), vehicle: Klucel (hydroxypropylcellulose) (HPC)", "value": "96 % of control"}, {"measurement": "T/C", "setting": "dose: 50.0 mg/kg/injection, schedule: Q01DX009 (ip), vehicle: Klucel (hydroxypropylcellulose) (HPC)", "value": "100 % of control"}, {"measurement": "T/C", "setting": "dose: 50.0 mg/kg/injection, schedule: Q01DX009 (ip), vehicle: other", "value": "96 % of control"}]}]}
